MIC data for five compounds are collected here from ChEMBL document CHEMBL1275250, “In vitro activity of azithromycin against nontyphoidal Salmonella enterica” (2010).

The nature of assay [1]: Antibacterial activity against Salmonella enterica serovar blockley harboring G235A mutation in rlpD gene by agar dilution method. Format: functional, Salmonella enterica subsp. enterica serovar Blockley. A general note: In agar dilution, organisms are placed on agar that contains the substance at set levels.
Assay [2] can be described thus: Antibacterial activity against Salmonella enterica subsp. enterica serovar Saintpaul harboring G235A mutation in rlpD gene by agar dilution method. Format: functional.
Assay [3] relates to Salmonella typhimurium. Put plainly: Antibacterial activity against Salmonella enterica serovar Typhimurium harboring G235A mutation in rlpD gene by agar dilution method. Format: functional, Salmonella enterica subsp. enterica serovar Typhimurium.
Assay [4] can be described thus: Antibacterial activity against Salmonella enterica serovar montevideo harboring rlpD GC379T and rlpV G25A mutant gene by agar dilution method. In kind it is functional, Salmonella enterica subsp. enterica serovar Montevideo.
The test system of assay [5] is Salmonella enterica. Description: Antibacterial activity against quinolone-resistant Salmonella enterica. In kind it is functional.
Assay [6] in a line: Antibacterial activity against quinolone-susceptible Salmonella enterica serovar newport s2099 by agar dilution method. In kind it is functional, Salmonella enterica subsp. enterica serovar Newport.
Assay [7] in a line: Antibacterial activity against quinolone-resistant Salmonella enterica serovar stanley s2018 by agar dilution method. In kind it is functional, Salmonella enterica subsp. enterica serovar Stanley.
The nature of assay [8]: Antibacterial activity against quinolone-susceptible Salmonella enterica serovar rissen s2021 by agar dilution method. In kind it is functional, Salmonella enterica subsp. enterica serovar Rissen.
The nature of assay [9]: Antibacterial activity against quinolone-resistant Salmonella enterica serovar stanley s2085 by agar dilution method. Format: functional, Salmonella enterica subsp. enterica serovar Stanley.
A short description of assay [10]: Antibacterial activity against quinolone-resistant Salmonella enterica serovar stanley s2086 by agar dilution method. In kind it is functional, Salmonella enterica subsp. enterica serovar Stanley.
A short description of assay [11]: Antibacterial activity against quinolone-susceptible Salmonella enterica serovar poona s2181 by agar dilution method. In kind it is functional, Salmonella enterica subsp. enterica serovar Poona.
In assay [12] the test system is Salmonella typhimurium. Description: Antibacterial activity against quinolone-susceptible Salmonella enterica serovar Typhimurium s2137 by agar dilution method. Format: functional, Salmonella enterica subsp. enterica serovar Typhimurium.
Assay [13] is described as follows: Antibacterial activity against quinolone-susceptible Salmonella enterica serovar virchow s2195 by agar dilution method. Format: functional, Salmonella enterica subsp. enterica serovar Virchow.
The nature of assay [14]: Antibacterial activity against quinolone-resistant Salmonella enterica serovar stanley s2236 by agar dilution method. In kind it is functional, Salmonella enterica subsp. enterica serovar Stanley.
Assay [15] can be described thus: Antibacterial activity against quinolone-resistant Salmonella enterica serovar stanley s2265 by agar dilution method. Format: functional, Salmonella enterica subsp. enterica serovar Stanley.
Assay [16] in a line: Antibacterial activity against quinolone-resistant Salmonella enterica serovar stanley s2280 by agar dilution method. Format: functional, Salmonella enterica subsp. enterica serovar Stanley.
Assay [17] deals with Salmonella typhimurium. Description: Antibacterial activity against quinolone-susceptible Salmonella enterica serovar Typhimurium s2389 by agar dilution method. In kind it is functional, Salmonella enterica subsp. enterica serovar Typhimurium.
Assay [18] concerns Salmonella typhimurium. Put plainly: Antibacterial activity against quinolone-susceptible Salmonella enterica serovar Typhimurium s2391 by agar dilution method. Format: functional, Salmonella enterica subsp. enterica serovar Typhimurium.
Assay [19] can be described thus: Antibacterial activity against quinolone-susceptible Salmonella enterica serovar blockley s2439 by agar dilution method. In kind it is functional, Salmonella enterica subsp. enterica serovar Blockley.
The nature of assay [20]: Antibacterial activity against quinolone-susceptible Salmonella enterica serovar bredeney s2477 by agar dilution method. Format: functional, Salmonella enterica subsp. enterica serovar Bredeney.
Assay [21] can be described thus: Antibacterial activity against quinolone-susceptible Salmonella enterica serovar blockley s2608 by agar dilution method. In kind it is functional, Salmonella enterica subsp. enterica serovar Blockley.
Assay [22] in a line: Antibacterial activity against quinolone-susceptible Salmonella enterica serovar emek s2635 by agar dilution method. Format: functional, Salmonella enterica subsp. enterica serovar Emek.
Assay [23] in a line: Antibacterial activity against quinolone-susceptible Salmonella enterica serovar blockley s2768 by agar dilution method. In kind it is functional, Salmonella enterica subsp. enterica serovar Blockley.
Assay [24] can be described thus: Antibacterial activity against quinolone-susceptible Salmonella enterica serovar saintpaul s2829 by agar dilution method. Format: functional, Salmonella enterica subsp. enterica serovar Saintpaul.
The nature of assay [25]: Antibacterial activity against quinolone-susceptible Salmonella enterica serovar stanley s2868 by agar dilution method. In kind it is functional, Salmonella enterica subsp. enterica serovar Stanley.
Assay [26] is described as follows: Antibacterial activity against quinolone-susceptible Salmonella enterica serovar hvittingfoss s2948 by agar dilution method. Format: functional, Salmonella enterica subsp. enterica serovar Hvittingfoss.
The nature of assay [27]: Antibacterial activity against quinolone-susceptible Salmonella enterica serovar rissen s3141 by agar dilution method. In kind it is functional, Salmonella enterica subsp. enterica serovar Rissen.
The test system of assay [28] is Salmonella typhimurium. Put plainly: Antibacterial activity against quinolone-susceptible Salmonella enterica serovar Typhimurium s3082 by agar dilution method. In kind it is functional, Salmonella enterica subsp. enterica serovar Typhimurium.
Assay [29] relates to Salmonella enteritidis. Description: Antibacterial activity against quinolone-susceptible Salmonella enterica serovar enteritidis s3139 by agar dilution method. In kind it is functional, Salmonella enterica subsp. enterica serovar Enteritidis.

The structures appear in SMILES notation. In brackets after ≈: the same amount, converted by molar mass. Some results are limits rather than exact numbers.

In general, MIC refers to the lowest concentration found to suppress growth. As to `CC[C@H]1OC(=O)[C@H](C)C(=O)[C@H](C)[C@@H](O[C@@H]2O[C@H](C)C[C@H](N(C)C)[C@H]2O)[C@](C)(OC)C[C@@H](C)C(=O)[C@H](C)[C@H]2N(CCCCn3cnc(-c4cccnc4)c3)C(=O)O[C@]12C` [TELITHROMYCIN], the MIC in assay [1] is over 128 µg/mL; in assay [2], over 128 µg/mL; in assay [3] it was over 128 µg/mL; in assay [4], 4 µg/mL (≈ 4.93 µM).

With `CCn1cc(C(=O)O)c(=O)c2ccc(C)nc21` [NALIDIXIC ACID], the MIC is over 512 µg/mL in assay [1]; 16 µg/mL (≈ 68.9 µM) in assay [2]; 16 µg/mL (≈ 68.9 µM) in assay [3]; 16 µg/mL (≈ 68.9 µM) in [4]; at least 32 µg/mL in assay [5].

Consider `O=C(O)c1cn(C2CC2)c2cc(N3CCNCC3)c(F)cc2c1=O` [CIPROFLOXACIN], for which the minimum inhibitory concentration (MIC) is 0.25 µg/mL (≈ 0.754 µM) in assay [1]; 0.03 µg/mL (≈ 0.0905 µM) in assay [2]; 0.06 µg/mL (≈ 0.181 µM) in assay [3]; 0.5 µg/mL (≈ 1.51 µM) in [4]; at least 0.125 µg/mL in assay [5].

On to `CC[C@H]1OC(=O)[C@H](C)[C@@H](O[C@H]2C[C@@](C)(OC)[C@@H](O)[C@H](C)O2)[C@H](C)[C@@H](O[C@@H]2O[C@H](C)C[C@H](N(C)C)[C@H]2O)[C@](C)(O)C[C@@H](C)C(=O)[C@H](C)[C@@H](O)[C@]1(C)O` [ERYTHROMYCIN], for which the MIC in assay [1] is over 128 µg/mL; in assay [2], over 128 µg/mL; in assay [3], over 64 µg/mL; in [4] it was over 64 µg/mL.

Take `CC[C@H]1OC(=O)[C@H](C)[C@@H](O[C@H]2C[C@@](C)(OC)[C@@H](O)[C@H](C)O2)[C@H](C)[C@@H](O[C@@H]2O[C@H](C)C[C@H](N(C)C)[C@H]2O)[C@](C)(O)C[C@@H](C)CN(C)[C@H](C)[C@@H](O)[C@]1(C)O` [AZITHROMYCIN]: the MIC in assay [6] is 32 µg/mL (≈ 42.7 µM); in [7] it was 64 µg/mL (≈ 85.4 µM); in [8], over 128 µg/mL; in assay [9], 64 µg/mL (≈ 85.4 µM); in [10] it was 64 µg/mL (≈ 85.4 µM); in [11], 32 µg/mL (≈ 42.7 µM). For the same compound, the MIC was 128 µg/mL (≈ 171 µM) in assay [12]; over 128 µg/mL in assay [13]; 32 µg/mL (≈ 42.7 µM) in assay [14]; 128 µg/mL (≈ 171 µM) in [15]; 64 µg/mL (≈ 85.4 µM) in assay [16]; 128 µg/mL (≈ 171 µM) in assay [17]. The MIC is 128 µg/mL (≈ 171 µM) in assay [18]; 64 µg/mL (≈ 85.4 µM) in assay [19]; over 128 µg/mL in assay [20]; 64 µg/mL (≈ 85.4 µM) in assay [21]; 64 µg/mL (≈ 85.4 µM) in assay [22]; 128 µg/mL (≈ 171 µM) in assay [23]. The MIC in assay [24] stood at 64 µg/mL (≈ 85.4 µM); in assay [25], 128 µg/mL (≈ 171 µM); in assay [26], 128 µg/mL (≈ 171 µM); in assay [27] it was 64 µg/mL (≈ 85.4 µM); in assay [28], 128 µg/mL (≈ 171 µM); in assay [29], 128 µg/mL (≈ 171 µM). Besides, the MIC in [1] is 64 µg/mL (≈ 85.4 µM); in assay [2] it was 64 µg/mL (≈ 85.4 µM); in assay [3] it was 128 µg/mL (≈ 171 µM); in assay [4], 4 µg/mL (≈ 5.34 µM); in assay [5], at least 32 µg/mL.
